Key:
[1] = system: degenerated disc tissue; assay: Disc regeneration effects by disc tissue staining (H&E) in disc degeneration model; format: in vivo, rabbits (New Zealand white rabbits); conditions: 0.5 mM/animal, local intradiscal injection twice
Procedure: 30 rabbits (New Zealand white rabbits; Orient Bio Inc.), weighing 3 to 3.5 kg, were prepared irrespective of sex.
The rabbits were anesthetized by intramuscular injection of 5 mg/kg of xylazine (Rompun, Bayer) and 35 mg/kg of ketamine hydrochloride (Ketalar, Pfizer). Prior to the procedure, lateral plain X-ray using a fluoroscopic apparatus (Model VPX-200; Toshiba Co.) was obtained to establish the pre-injection baseline height of intervertebral disc. The baseline control refers to a standard for measurement of a disc space. After the rabbits were positioned on the laboratory table, L23, L34, L45, and L56 disc levels were confirmed by the machine, and annulus fibrosus was stabbed into the posterolateral side of the disc at L23, L45, and L56 levels, using an 18G needle. After recovery from the anesthesia, the animals were housed in a cage under the following breeding conditions: temperature 20-25° C., humidity 10%-50%, and Light/Dark (L/D) cycle: (light from 08:00 a.m. to 20:00 p.m.). All animals were fed once a day. X-ray photographs were taken 2 and 4 weeks after the initial annular puncture. The X-ray was taken after anesthesia. Based on the results of X-ray, an intervertebral disc height (IVD height) was measured. From the measurement results, disc degeneration degree was quantified by a modification of the method disclosed in Lu et al., Spine. 22:1828-34, 1997.
Thereafter, experiments were carried out for two separate groups, DMSO-administered control group and Example 1 peptide-administered experimental group, and the rabbits were euthanized by injection of ketamine (25 mg/kg) and sodium pentobarbital (1.2 g/kg, Nembutal, Ovation) according to the planned schedule, followed by extraction of the disc for histological and biochemical analysis, respectively.
Disc-degenerated rabbits from Section 2-1 were divided into two groups. Each group was given dimethyl sulfoxide (DMSO) and the peptide of Example 1 (0.5 mM/animal) by local intradiscal injection twice. The administration point for each group was 4 weeks after the induction of disc degeneration and 2 weeks thereafter. After the second administration, the animals were raised for 2, 4, and 8 weeks, respectively. At Weeks 4, 6, and 10 after the first administration of each of the Example 1 peptide and DMSO, the corresponding respective disc tissues were extracted and fixed in formalin. The fixed disc tissues were embedded in paraffin, and serial sections having a thickness of […] along the sagittal plane were prepared. Of these sections, two mid-sagittal sections were stained with hematoxylin and eosin (H&E). For the comparison with the normal disc tissue, the disc was extracted, treated and stained from the rabbits with no induction of disc degeneration according to the same method described above. […]

[2] = system: aggrecan gene; assay: Aggrecan gene expression in disc tissues by real-time PCR in disc degeneration model; format: in vivo, rabbits (New Zealand white rabbits); conditions: Week 4 after first administration; 0.5 mM/animal intradiscal at Weeks 0 and 2
Procedure: Real-time PCR was carried out to examine a gene expression level of aggrecan, which is a representative extracellular matrix component in disc tissues.
In the same manner as in Example 2-1, animals were prepared and divided into two groups, to each of which DMSO and the peptide of Example 1 (0.5 mM/animal) were administered by local intradiscal injection. The administration point for each group was 4 weeks after the induction of disc degeneration and 2 weeks thereafter. After the second administration, the animals were raised for 2, 4, and 8 weeks, respectively. […]
The quantity of mRNA of GAPDH and aggrecan was examined by a Prism 7900HT (ABI) using PowerSYBR Green PCR Master Mix (Applied Biosystems Inc.). […] GAPDH was selected as a reference gene, and a CT value difference (ΔCT) between the reference gene and the aggrecan gene was calculated. In addition, a CT value difference (ΔΔCT) between the normal disc and the Example 1 peptide-administered disc (or DMSO-administered disc) was calculated. Then, 2^(−ΔΔCT) was calculated and expressed in terms of percentage relative to the normal disc value.

[3] = system: TGF-beta1 signaling; assay: TGF-beta1 signaling inhibition: phosphorylated Smad2 Western blot in HepG2 cells; format: cell-based
Procedure: Inhibition of TGF-beta1 signaling by the peptide of Example 1 was confirmed in accordance with the following experimental method.
Treatment of HepG2 cells with TGF-beta1 is known to result in apoptosis, during which Smad2 is first phosphorylated (Park T J. et al., Mol. Carcinog. 47:784-796, 2008; and Gressner A M. et al., J Hepatol. 26:1079-1092, 1997). Using these properties, the experiment was carried out as follows. 1×10^6 of HepG2 cells (ATCC; American Type Culture Collection) were seeded in a 60 mm dish, stabilized overnight, and then depleted of nutrients by serum-free media (SFM) for 24 hours. Prior to treatment of the cells with the peptide of Example 1, 5 ng/mL of TGF-beta1 (PromoKine, Germany) and the above peptide (1, 5, and 25 μM) were subjected to pre-incubation at 37° C. for 1 hour. Further, DMSO (2 μl/mL) was also pre-incubated with TGF-beta1 (5 ng/mL) at 37° C. for 1 hour. Then, the cells were treated with the pre-incubated solutions for 30 minutes, followed by extraction of proteins. In addition, the cells were previously treated only with […] of SB431542 (TOCRIS, USA), an inhibitor of the TGF-beta receptor, followed by incubation for 1 hour, and then treated with TGF-beta1 (5 ng/mL) for 30 minutes. Then, the cells were homogenized on ice in Radioimmunoprecipitation (RIPA) Lysis Buffer (Millipore) {50 mM Tris-HCl (pH 7.4), 150 mM NaCl, 0.25% deoxycholic acid, 1% NP-40, 1 mM ethylenediaminetetraacetic acid (EDTA), 1 mM phenylmethylsulfonyl fluoride (PMSF), 40 mM NaF, 1 mM Na3VO4, 1 mM dithiothreitol (DTT)}. […]
FIG. 3 illustrates the Western blot results (Lane 1: non-treated HepG2 cells, Lane 2: TGF-beta1-treated cells, Lane 3: TGF-beta1/SB431542-treated cells, Lanes 4, 5 and 6: cells treated with 1, 5, and 25 μM of peptide/TGF-beta1, respectively, and Lane 7: TGF-beta1/DMSO-treated cells). […] The bottom of FIG. 3 illustrates the Coomassie Blue staining results of the membrane used in Western blot, showing that the quantity of the protein is the same in all the lanes.

Compound	distinction between nucleus pulposus and annulus fibrosus ([1]; Week 10)	extracellular matrix components in disc tissue ([1]; Week 10)	size of disc as compared to the DMSO-administered disc tissue ([1]; Week 10)	staining of cell nuclei in the nucleus pulposus region ([1]; Week 10, x400)	aggrecan gene expression as compared to the DMSO-administered disc tissue [2]	phosphorylation degree of Smad2 ([3]; peptide 1, 5 and 25 μM pre-incubated with TGF-beta1 5 ng/mL for 1 hour, cells treated 30 minutes)	extent of TGF-beta1 signaling inhibition ([3]; peptide 1, 5 and 25 μM, compared with SB431542)	phosphorylation of Smad2 ([3]; pre-treated with 1004 of SB431542 for 1 hour, then TGF-beta1 5 ng/mL for 30 minutes)
LQVVYLH [Example 1]	discernible between the nucleus pulposus and the annulus fibrosus	abundance of extracellular matrix components	increased size of disc	vivid staining of the cell nuclei	increase in the aggrecan gene expression	decreased in a dose-dependent manner	does not completely inhibit TGF-beta1 signaling	
NC(=O)c1ccc(-c2nc(-c3ccc4c(c3)OCO4)c(-c3ccccn3)[nH]2)cc1 [SB431542, reference compound]								complete inhibition of phosphorylation

— patent publication US8691749B2, “Peptide and use thereof” (Ensoltek Co., Ltd., priority 2009, dated 2014)
